#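 At the GI50, growth is halved. Definition used: TGI = concentration required for complete inhibition of growth.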
# Legend:
# Assay in all cases: NCI tumour cell line growth inhibition, 384-well format
# 786-0 renal = tested on: 786-0 renal
# A498 renal = tested on: A498 renal
# A549 NSCLC = tested on: A549 NSCLC
# ACHN renal = tested on: ACHN renal
# BT-549 breast = tested on: BT-549 breast
# CAKI-1 renal = tested on: CAKI-1 renal
# CCRF-CEM leukemia = tested on: CCRF-CEM leukemia
# COLO 205 colon = tested on: COLO 205 colon
# DU-145 prostate = tested on: DU-145 prostate
# EKVX NSCLC = tested on: EKVX NSCLC
# HCC-2998 colon = tested on: HCC-2998 colon
# HCT-15 colon = tested on: HCT-15 colon
# HL-60(TB) leukemia = tested on: HL-60(TB) leukemia
# HOP-62 NSCLC = tested on: HOP-62 NSCLC
# HOP-92 NSCLC = tested on: HOP-92 NSCLC
# HS 578T breast = tested on: HS 578T breast
# HT29 colon = tested on: HT29 colon
# IGROV1 ovarian = tested on: IGROV1 ovarian
# K-562 leukemia = tested on: K-562 leukemia
# KM12 colon = tested on: KM12 colon
# LOX IMVI melanoma = tested on: LOX IMVI melanoma
# M14 melanoma = tested on: M14 melanoma
# MALME-3M melanoma = tested on: MALME-3M melanoma
# MCF7 breast = tested on: MCF7 breast
# MDA-MB-231 breast = tested on: MDA-MB-231 breast
# MDA-MB-435 melanoma = tested on: MDA-MB-435 melanoma
# MDA-MB-468 breast = tested on: MDA-MB-468 breast
# MOLT-4 leukemia = tested on: MOLT-4 leukemia
# NCI-H226 lung = tested on: NCI-H226 lung
# NCI-H23 lung = tested on: NCI-H23 lung
# NCI-H322M lung = tested on: NCI-H322M lung
# NCI-H460 NSCLC = tested on: NCI-H460 NSCLC
# NCI-H522 lung = tested on: NCI-H522 lung
# NCI/ADR-RES ovarian = tested on: NCI/ADR-RES ovarian
# OVCAR-3 ovarian = tested on: OVCAR-3 ovarian
# OVCAR-4 ovarian = tested on: OVCAR-4 ovarian
# OVCAR-5 ovarian = tested on: OVCAR-5 ovarian
# OVCAR-8 ovarian = tested on: OVCAR-8 ovarian
# PC-3 prostate = tested on: PC-3 prostate
# RPMI-8226 leukemia = tested on: RPMI-8226 leukemia
# RXF 393 renal = tested on: RXF 393 renal
# SF-268 CNS = tested on: SF-268 CNS
# SF-295 CNS = tested on: SF-295 CNS
# SF-539 CNS = tested on: SF-539 CNS
# SK-MEL-28 melanoma = tested on: SK-MEL-28 melanoma
# SK-MEL-5 melanoma = tested on: SK-MEL-5 melanoma
# SK-OV-3 ovarian = tested on: SK-OV-3 ovarian
# SN12C renal = tested on: SN12C renal
# SNB-19 CNS = tested on: SNB-19 CNS
# SNB-75 CNS = tested on: SNB-75 CNS
# SR leukemia = tested on: SR leukemia
# SW-620 colon = tested on: SW-620 colon
# T-47D breast = tested on: T-47D breast
# TK-10 renal = tested on: TK-10 renal
# U251 glioblastoma = tested on: U251 glioblastoma
# UACC-257 melanoma = tested on: UACC-257 melanoma
# UACC-62 melanoma = tested on: UACC-62 melanoma
# UO-31 renal = tested on: UO-31 renal
smiles,measurement,setting,value
COc1cc2c(Oc3ccc4[nH]c(C)cc4c3F)ncnc2cc1OCCCN1CCCC1,GI50,786-0 renal,1330 nM
same,TGI,786-0 renal,2630 nM
same,GI50,A498 renal,1240 nM
same,TGI,A498 renal,2590 nM
same,GI50,A549 NSCLC,1460 nM
same,TGI,A549 NSCLC,2970 nM
same,GI50,ACHN renal,1200 nM
same,TGI,ACHN renal,2640 nM
same,GI50,BT-549 breast,1040 nM
same,TGI,BT-549 breast,2220 nM
same,GI50,CAKI-1 renal,1050 nM
same,TGI,CAKI-1 renal,2360 nM
same,GI50,CCRF-CEM leukemia,1630 nM
same,TGI,CCRF-CEM leukemia,2990 nM
same,GI50,COLO 205 colon,1690 nM
same,TGI,COLO 205 colon,3350 nM
same,GI50,DU-145 prostate,1920 nM
same,TGI,DU-145 prostate,3770 nM
same,GI50,EKVX NSCLC,1160 nM
same,TGI,EKVX NSCLC,2840 nM
same,GI50,HCC-2998 colon,1590 nM
same,TGI,HCC-2998 colon,2970 nM
same,GI50,HCT-15 colon,1210 nM
same,TGI,HCT-15 colon,2530 nM
same,GI50,HL-60(TB) leukemia,1930 nM
same,TGI,HL-60(TB) leukemia,3350 nM
same,GI50,HOP-62 NSCLC,1500 nM
same,TGI,HOP-62 NSCLC,2930 nM
same,GI50,HOP-92 NSCLC,578 nM
same,TGI,HOP-92 NSCLC,1920 nM
same,GI50,HS 578T breast,1260 nM
same,TGI,HS 578T breast,2530 nM
same,GI50,HT29 colon,1460 nM
same,TGI,HT29 colon,2800 nM
same,GI50,IGROV1 ovarian,632 nM
same,TGI,IGROV1 ovarian,1950 nM
same,GI50,K-562 leukemia,1130 nM
same,TGI,K-562 leukemia,2370 nM
same,GI50,KM12 colon,1810 nM
same,TGI,KM12 colon,3280 nM
same,GI50,LOX IMVI melanoma,1620 nM
same,TGI,LOX IMVI melanoma,2990 nM
same,GI50,M14 melanoma,1680 nM
same,TGI,M14 melanoma,3060 nM
same,GI50,MALME-3M melanoma,1540 nM
same,TGI,MALME-3M melanoma,2880 nM
same,GI50,MCF7 breast,1400 nM
same,TGI,MCF7 breast,2740 nM
same,GI50,MDA-MB-231 breast,1760 nM
same,TGI,MDA-MB-231 breast,3530 nM
same,GI50,MDA-MB-435 melanoma,1770 nM
same,TGI,MDA-MB-435 melanoma,3410 nM
same,GI50,MDA-MB-468 breast,1040 nM
same,TGI,MDA-MB-468 breast,2240 nM
same,GI50,MOLT-4 leukemia,1380 nM
same,TGI,MOLT-4 leukemia,2680 nM
same,GI50,NCI-H226 lung,306 nM
same,TGI,NCI-H226 lung,1960 nM
same,GI50,NCI-H23 lung,1150 nM
same,TGI,NCI-H23 lung,2800 nM
same,GI50,NCI-H322M lung,1790 nM
same,TGI,NCI-H322M lung,4560 nM
same,GI50,NCI-H460 NSCLC,1780 nM
same,TGI,NCI-H460 NSCLC,3270 nM
same,GI50,NCI-H522 lung,1550 nM
same,TGI,NCI-H522 lung,2910 nM
same,GI50,NCI/ADR-RES ovarian,2350 nM
same,TGI,NCI/ADR-RES ovarian,5900 nM
same,GI50,OVCAR-3 ovarian,1630 nM
same,TGI,OVCAR-3 ovarian,3060 nM
same,GI50,OVCAR-4 ovarian,1140 nM
same,TGI,OVCAR-4 ovarian,2430 nM
same,GI50,OVCAR-5 ovarian,1390 nM
same,TGI,OVCAR-5 ovarian,3180 nM
same,GI50,OVCAR-8 ovarian,1580 nM
same,TGI,OVCAR-8 ovarian,2960 nM
same,GI50,PC-3 prostate,1770 nM
same,TGI,PC-3 prostate,3300 nM
same,GI50,RPMI-8226 leukemia,1610 nM
same,TGI,RPMI-8226 leukemia,2970 nM
same,GI50,RXF 393 renal,1380 nM
same,TGI,RXF 393 renal,2690 nM
same,GI50,SF-268 CNS,1660 nM
same,TGI,SF-268 CNS,3220 nM
same,GI50,SF-295 CNS,1730 nM
same,TGI,SF-295 CNS,3130 nM
same,GI50,SF-539 CNS,488 nM
same,TGI,SF-539 CNS,1830 nM
same,GI50,SK-MEL-28 melanoma,1660 nM
same,TGI,SK-MEL-28 melanoma,3030 nM
same,GI50,SK-MEL-5 melanoma,1300 nM
same,TGI,SK-MEL-5 melanoma,2580 nM
same,GI50,SK-OV-3 ovarian,1260 nM
same,TGI,SK-OV-3 ovarian,2530 nM
same,GI50,SN12C renal,591 nM
same,TGI,SN12C renal,2410 nM
same,GI50,SNB-19 CNS,1570 nM
same,TGI,SNB-19 CNS,4710 nM
same,GI50,SNB-75 CNS,1320 nM
same,TGI,SNB-75 CNS,2740 nM
same,GI50,SR leukemia,1560 nM
same,TGI,SR leukemia,2910 nM
same,GI50,SW-620 colon,1630 nM
same,TGI,SW-620 colon,3100 nM
same,GI50,T-47D breast,1300 nM
same,TGI,T-47D breast,2580 nM
same,GI50,TK-10 renal,1760 nM
same,TGI,TK-10 renal,3280 nM
same,GI50,U251 glioblastoma,1580 nM
same,TGI,U251 glioblastoma,3000 nM
same,GI50,UACC-257 melanoma,1610 nM
same,TGI,UACC-257 melanoma,2970 nM
same,GI50,UACC-62 melanoma,1630 nM
same,TGI,UACC-62 melanoma,3000 nM
same,GI50,UO-31 renal,1390 nM
same,TGI,UO-31 renal,2770 nM
